Columns and labels:
Type in all cases: functional
MDA-MB-231 [1] = experiment: In vitro growth inhibition against breast cancer MDA-MB-231/ATCC cell line was reported.; conditions: Homo sapiens
786-0 = experiment: In vitro total growth inhibition against renal cancer […] cell lines was reported.; conditions: Homo sapiens, read-out: Log TGI (converted)
NCI-H322M = experiment: In vitro growth inhibition against non-small-cell lung cancer […] cell line was reported.; conditions: Homo sapiens
SNB-75 = experiment: In vitro total growth inhibition against CNS cancer SNB-75 cell lines was reported.; conditions: Homo sapiens, read-out: Log TGI (converted)
NCI-H226 = experiment: In vitro growth inhibition against non-small-cell lung cancer NCI-H226 cell line was reported.; conditions: Homo sapiens
DU-145 [2] = experiment: In vitro growth inhibition against prostate cancer […] cell line was reported.; conditions: Homo sapiens
OVCAR-3 = experiment: In vitro growth inhibition against ovarian cancer OVCAR-3 cell line was reported.; conditions: Homo sapiens
OVCAR-4 = experiment: In vitro growth inhibition against ovarian cancer OVCAR-4 cell line was reported.; conditions: Homo sapiens
M14 = experiment: Log of molar concentration leading to 50% cell death against melanoma M14 cell line was reported; conditions: Homo sapiens, read-out: Log LC50 (the source's name) (converted)
U-251 = experiment: In vitro growth inhibition against CNS cancer U251 cell line was reported.; conditions: Homo sapiens
RPMI-8226 [3] = experiment: In vitro growth inhibition against leukemia […] cell line was reported.; conditions: Homo sapiens
NCI-H46 = experiment: In vitro total growth inhibition against non-small-cell lung cancer […] cell lines was reported.; conditions: Homo sapiens, read-out: Log TGI (converted)
HL-60 = experiment: Log of molar concentration leading to 50% cell death against leukemia HL-60(TB) cell line was reported; conditions: Homo sapiens, read-out: Log LC50 (the source's name) (converted)
SNB-19 = experiment: In vitro total growth inhibition against CNS cancer SNB-19 cell lines was reported.; conditions: Homo sapiens, read-out: Log TGI (converted)
HOP-62 = experiment: Log of molar concentration leading to 50% cell death against non-small-cell lung cancer HOP-62 cell line was reported; conditions: Homo sapiens, read-out: Log LC50 (the source's name) (converted)
T47D = experiment: In vitro growth inhibition against breast cancer […] cell line was reported.; conditions: Homo sapiens
CCRF-CEM = experiment: In vitro total growth inhibition against leukemia CCRF cell lines was reported.; conditions: Homo sapiens, read-out: Log TGI (converted)
SW-620 = experiment: In vitro total growth inhibition against colon cancer SW-620 cell lines was reported.; conditions: Homo sapiens, read-out: Log TGI (converted)
IGROV-1 = experiment: In vitro total growth inhibition against ovarian cancer IGROV1 cell lines was reported.; conditions: Homo sapiens, read-out: Log TGI (converted)
RXF 393 = experiment: In vitro total growth inhibition against renal cancer RXF 393 cell lines was reported.; conditions: Homo sapiens, read-out: Log TGI (converted)
UACC-62 = experiment: Log of molar concentration leading to 50% cell death against melanoma UACC-62 cell line was reported; conditions: Homo sapiens, read-out: Log LC50 (the source's name) (converted)
NCI-H522 = experiment: In vitro growth inhibition against non-small-cell lung cancer […] cell line was reported.; conditions: Homo sapiens
SK-OV-3 = experiment: In vitro growth inhibition against ovarian cancer SK-OV-3 cell line was reported.; conditions: Homo sapiens
SK-MEL-28 [4] = experiment: In vitro total growth inhibition against melanoma SK-MEL-28 cell lines was reported.; conditions: Homo sapiens, read-out: Log TGI (converted)
OVCAR-5 = experiment: In vitro growth inhibition against ovarian cancer OVCAR-5 cell line was reported.; conditions: Homo sapiens
DU-145 [5] = experiment: In vitro total growth inhibition against prostate cancer […] cell lines was reported.; conditions: Homo sapiens, read-out: Log TGI (converted)
A549 = experiment: In vitro growth inhibition against non-small-cell lung cancer A 549/ATCC cell line was reported.; conditions: Homo sapiens
MDA-MB-231 [6] = experiment: In vitro total growth inhibition against breast cancer MDA-MB-231/ATCC cell lines was reported.; conditions: Homo sapiens, read-out: Log TGI (converted)
SK-MEL-28 [7] = experiment: Log of molar concentration leading to 50% cell death against melanoma SK-MEL-28 cell line was reported; conditions: Homo sapiens, read-out: Log LC50 (the source's name) (converted)
RPMI-8226 [8] = experiment: Log of molar concentration leading to 50% cell death against leukemia […] cell line was reported; conditions: Homo sapiens, read-out: Log LC50 (the source's name) (converted)

In the case of O=C(Nc1nccs1)c1cc2c(cc1Cl)Sc1nccn1S2(=O)=O, the GI50 (MDA-MB-231 [1]) is reported as 19.5 µM, the TGI (786-0) is reported as 29.5 µM and the GI50 (NCI-H322M) is reported as 17.4 µM. For the same compound, the TGI (SNB-75) was 35.5 µM, the GI50 (NCI-H226) was 19.5 µM and the GI50 (DU-145 [2]) was 16.2 µM. For the same compound, the GI50 (OVCAR-3) was 15.1 µM, the GI50 (OVCAR-4) was 16.2 µM and the CC50 (M14) was 67.6 µM. It also gave a GI50 (U-251) of 17.4 µM, a GI50 (RPMI-8226 [3]) of 9.33 µM and a TGI (NCI-H46) of 29.5 µM. For the same compound, the CC50 (HL-60) was 70.8 µM, the TGI (SNB-19) was 37.2 µM and the CC50 (HOP-62) was 61.7 µM. For the same compound, the GI50 (T47D) was 23.4 µM, the TGI (CCRF-CEM) was 24.5 µM and the TGI (SW-620) was 41.7 µM. The TGI (IGROV-1) was 29.5 µM, the TGI (RXF 393) was 39.8 µM and the CC50 (UACC-62) was 52.5 µM. The GI50 (NCI-H522) was 1.23 µM, the GI50 (SK-OV-3) was 24.5 µM and the TGI (SK-MEL-28 [4]) was 38 µM. The GI50 (OVCAR-5) was 21.9 µM, the TGI (DU-145 [5]) was 30.2 µM and the GI50 (A549) was 24 µM. For the same compound, the TGI (MDA-MB-231 [6]) was 36.3 µM, the CC50 (SK-MEL-28 [7]) was 70.8 µM and the CC50 (RPMI-8226 [8]) was 57.5 µM.
